In a melting point compilation (Tetko et al.; mined from patent text by program, amines drawn as free bases though some values may be those of a salt) one finds melting point data, which are given here for 88 compounds.

Some results are limits rather than exact numbers.

Usually melting point stands for the temperature, or range, at which the solid turns liquid.

Compound `COc1ccc(C2=Cc3ccc(O)cc3OC2)cc1` displayed a melting point of 161 to 163 °C.

For `Cc1nc(N2CCCN(Cc3ccc(F)cc3)C2=O)sc1C(=O)NCc1cccnc1`, the melting point was 48 to 50 °C.

With `Nc1nc2c(Oc3cc(-c4ccc(C(F)(F)F)cc4)ncn3)cccc2s1`, the melting point lay within 232 to 234 °C.

Consider `CN(C)C(=O)CCc1ccc(OCCN(C)c2nc3ccccc3o2)cc1`, for which the melting point was in the range of 103 to 105 °C.

For `CC(Cl)C(=O)N1c2ccccc2C(=O)Nc2cccnc21` (stereo not drawn), the melting point lay in the range of 215 to 218 °C.

With `CC(C)CC(C)(C(=O)NC1CCCCCCCCCCNC1=O)c1cccc(Cl)c1S` (stereo not drawn), the melting point lay within 143 to 148 °C.

Turning to `Nc1nc(-c2ccc(F)cc2)cn1N`, the melting point is 227 to 230 °C.

Turning to `COc1ccc(C2SC(=O)NC2=O)cc1C(=O)NCc1ccc(C(F)(F)F)cc1` (stereo not drawn), the melting point lay within 168 to 169 °C.

`CC(=O)N1CCC(CCCCC(=O)O)CC1` registered a melting point of 198 to 203 °C.

The compound `CCCc1nnc2n1-c1ccc(Cl)cc1C(c1ccccc1)=NC2` returned a melting point of 176 °C.

Regarding `CN1C(C(=O)Nc2cccc(Br)c2)=C(O)c2ccc3ccccc3c2S1(=O)=O`, the melting point lay in the range of 268 to 269 °C.

The compound `COc1ccc(OCCC2CCN(c3cc(Cl)nnc3Cl)CC2)cc1` displayed a melting point of 119 to 120 °C.

In turn, `Cc1cc(C)c(C2C(=O)N(N(C)C)C3(CCN(N(C)C)CC3)C2=O)c(C)c1` (stereo not drawn) came in with a melting point of 80 to 85 °C.

On to `CCCNC1=CC(=O)C(NCCC)=C2C1=Nc1ccccc1S2(=O)=O`, for which the melting point fell in the range of 174 to 176 °C.

`CC(=O)c1ccc2c(c1)CCCN2C(=O)OC(C)(C)C` had a melting point of 80 to 82 °C.

In the case of `COC(=O)c1ccc(NC2COC(=O)C2)cc1` (stereo not drawn), the melting point lay within 136 to 138 °C.

The compound `CC=CC(=O)Nc1n[nH]c2ccc(C(F)(F)F)cc12` registered a melting point of 242 °C.

Regarding `COC(=O)c1cc(F)c(N2CCN(C(C)=O)CC2)nc1Nc1ccc(F)cc1F`, the melting point was in the range of 172 to 173 °C.

`CC(C)(C)CC(NC(=O)c1ccc(Br)cc1)NC(=NS(=O)(=O)C(F)(F)F)Nc1cccnc1` (stereo not drawn) came in with a melting point of 185 to 186 °C.

`CN1CCC(c2c(O)cc(O)c3c(=O)cc(-c4ccc(C(F)(F)F)cc4)oc23)C1CO` (stereo not drawn) returned a melting point of 238 °C.

The compound `CN(CCO)c1ccc([N+](=O)[O-])cn1` gave a melting point of 83 to 84 °C.

Consider `CCCc1cc(=O)oc2cc(OCCCN3CCN(c4ccccc4)CC3)ccc12`, for which the melting point lay in the range of 114 to 116 °C.

Consider `c1ccc(COc2cc3cc(-c4ccccc4)[nH]c3cc2OCc2ccccc2)cc1`, for which the melting point was in the range of 140 to 141 °C.

`CC(C)OC(=O)C=Cc1cc([N+](=O)[O-])ccc1Cl` gave a melting point of 74 to 75 °C.

`COCC(C)Oc1cc(-n2c(=O)cc(C(F)(F)F)n(C)c2=O)c(F)cc1Cl` (stereo not drawn): the melting point was in the range of 80 to 82 °C.

`CC(C)n1nc(-c2cc(C(=O)N3CCOCC3)cnc2-c2ccccc2)ccc1=O` came in with a melting point of 132 to 133 °C.

`FC(F)(F)c1ccn(-c2cccnc2)n1` had a melting point of 59 to 61 °C.

The compound `N#Cc1ccc(NC(=O)c2ccc(C=O)cc2)cc1` registered a melting point of 236 °C.

`COC(=O)C(Oc1cc(OCc2ccsc2)ccc1C#N)c1ccccc1Br` (racemic) came in with a melting point of 92 to 95 °C.

As to `Cc1sc(-n2cccc2)c(C(=O)N2CCCC2)c1C`, the melting point is 100 °C.

`CC(C)N1CCN(c2ccc(Br)cn2)CC1` yielded a melting point of 76 to 78 °C.

`Cc1cccc(NC(=O)N(C)Cc2cccc3c2C(=O)N(C2CCC(=O)NC2=O)C3=O)c1` (stereo not drawn) displayed a melting point of 212 to 215 °C.

For the compound `CC(C)CC(S)C(=O)NC(C)(C)C(=O)NC(Cc1ccc(-c2cccs2)nc1)C(=O)O` (stereo not drawn), the melting point is 194 to 196 °C.

Take `CS(=O)(=O)OCCC1c2ccccc2COc2ccccc21` (stereo not drawn): the melting point was in the range of 64 to 66 °C.

Consider `CCN(CC)CCOc1ccc(Nc2ncc3c(n2)N(C2CCCC2)C(=O)NC3)cc1C`, for which the melting point was 175 to 177 °C.

With `COC(=O)CCn1c(=O)n2n(c1=O)C(C(=O)OC)C=CC2C(=O)OC` (stereo not drawn), the melting point lay within 139 to 141 °C.

`NCC1Cc2cc3c(cc2O1)CCCC3` (stereo not drawn) returned a melting point of more than 225 °C.

With `CNC(=O)c1ccc(C)c(-c2nc(SC)nc3c2CNC(=O)N3c2c(F)cccc2F)c1`, the melting point lay in the range of 273 to 275 °C.

Regarding `O=C(Nc1ccc(Cl)c(C(F)(F)F)c1)C1C(=O)C2CCC(C2)C1=O` (stereo not drawn), the melting point was in the range of 136 to 137 °C.

As to `Cc1ccnc2c([N+](=O)[O-])cc3c(c12)OCO3`, the melting point lay within 183 to 185 °C.

The compound `CCNC1CN(c2c(F)cc3c(=O)c(C(=O)O)cn(C4CC4)c3c2F)C1` registered a melting point of 222 to 227 °C.

With `O=C(Oc1ccc2c(c1)OC=C(C(=O)N1CCN(C(c3ccc(F)cc3)c3ccc(F)cc3)CC1)O2)c1cccnc1`, the melting point stood at 142 °C.

As for `COc1cc(C(=O)NC2CCC(N(C)C)CC2)ccc1Nc1ncc2c(n1)N(C1CCCCC1)CC(F)(F)C(=O)N2C` (stereo not drawn), the melting point was 208 to 214 °C.

In turn, `COC1(c2csc(Sc3ccc(/C(C)=N/O)cn3)c2)CCOCC1` had a melting point of 151 to 153 °C.

For the compound `CC(=O)N(CCCCCC(=O)O)C(c1ccccc1)c1ccccc1`, the melting point fell in the range of 119 to 120 °C.

In the case of `Nc1nc2ccccc2n1CCCN1CCN(C(c2ccccc2)c2ccccc2)CC1`, the melting point came out at 229 °C.

In turn, `C=C(C)C(=O)Nc1ccc(NC(=O)C(F)(F)C(F)(F)C(F)(F)F)c(O)c1` returned a melting point of 247 to 250 °C.

`CCCC(=O)Nc1c(C(=O)c2cccc(C)c2)[nH]c2cc(Cl)ccc12` displayed a melting point of 127 to 130 °C.

In the case of `O=c1[nH]c2cc(Cl)ccc2n(CCO)c1=O`, the melting point was determined as 295 °C.

`N#CCNC(=O)c1ccnc(Cl)c1` had a melting point of 131 to 132 °C.

In turn, `CC(=O)N1CCc2sc(C)c(C(=O)CCCN3CCC(c4noc5cc(F)ccc45)CC3)c2C1` yielded a melting point of 116 to 118 °C.

In turn, `O=C(N[C@@H](CS(=O)(=O)c1ccc(Oc2ccccc2)cc1)C(=O)NO)OCc1ccccc1` displayed a melting point of 195 to 202 °C.

In the case of `CC(C)C1(C)N=C(c2ncc(C3OCCO3)cc2C(=O)O)NC1=O` (stereo not drawn), the melting point stood at 156 °C.

On to `O=S(c1ccc(/C=C/c2nc(CNc3ccc(CCCCn4ccnn4)cc3)co2)cc1)C(F)(F)F` (stereo not drawn), for which the melting point fell in the range of 121 to 124 °C.

The compound `CC(=O)OC1CSC(Oc2cncc(-c3ccc(C(F)(F)F)cc3)c2)C(OC(C)=O)C1OC(C)=O` (stereo not drawn) gave a melting point of 163 to 164 °C.

In turn, `COc1cc(CC(=O)NCCCc2ccc(C)c(C)c2)ccc1OCCO` had a melting point of 119 to 120 °C.

Turning to `CN(C)CCC=Cc1ccc2c(c1)CCCN2C(=O)c1ccc(-c2ccc(Cl)cc2)cc1`, the melting point is 142 to 144 °C.

Consider `Nc1ccc(-c2n[nH]c(-c3ccncc3)n2)cc1`, for which the melting point is 251 to 252 °C.

For `CC(=CC#N)CCN1C(=O)c2ccccc2S1(=O)=O`, the melting point fell in the range of 117 to 118 °C.

`Cc1ccc(NS(=O)(=O)c2ccccc2)c(C(=O)O)c1` displayed a melting point of 197 to 198 °C.

For `CC(=O)NS(=O)(=O)c1ccc(C2=C(c3cccc(F)c3)C(=O)C(C)(C)O2)cc1`, the melting point lay within 178 to 179 °C.

Consider `COc1ccc(-c2cc(C)c3nc(OC)ccc3c2)cc1`, for which the melting point lay in the range of 104 to 106 °C.

`COc1ccc(S(=O)(=O)n2ccc3ccnc(-c4ccc(Cl)cc4)c32)cc1` came in with a melting point of 126 to 128 °C.

`CSc1cc2c(cn1)c(=O)n1nccc1n2C`: the melting point was 267 °C.

With `COc1cc(CN(C)c2ncc(C(=O)NO)cn2)cc(C(=O)Nc2ccc(Cl)c(-c3nc4cc(N(C)C)ccc4[nH]3)c2)c1`, the melting point is 207 to 208 °C.

In turn, `O=C(Nc1nccs1)C(CC1CCCC1)c1ccc(-c2ccncc2)cc1` (stereo not drawn) returned a melting point of 165 to 167 °C.

As to `COc1cc(N)c(Cl)cc1C(=O)NCC1CCN(CCCCCNCc2cccs2)CC1`, the melting point is 67 to 69 °C.

In turn, `CN1C(=O)CN(C(=O)CNC(=O)OCc2ccccc2)C(c2ccccc2)c2cc(Cl)ccc21` (stereo not drawn) yielded a melting point of 158 to 160 °C.

`O=C1c2c(ccc(F)c2Cl)-n2cnc(-c3noc(CCl)n3)c2[C@@H]2CCN12`: the melting point lay within 214 to 217 °C.

Regarding `O=C(OCC(Cl)(Cl)Cl)N1C2CCC1CC(Sc1ccc(Cl)cc1)C2` (stereo not drawn), the melting point lay within 70 to 71.5 °C.

The compound `CC(C)NC(=O)Nc1cc(-c2ccnc3c(C(=O)c4cccs4)cnn23)ccc1F` registered a melting point of more than 200 °C.

Regarding `CCOc1nn(CCOc2c(CC)cccc2CC(=O)O)cc1C(=O)NCc1ccc(Cl)cc1Cl`, the melting point lay in the range of 129 to 131 °C.

For `CC(C#Cc1ccc(C(=O)Cc2ccc(F)cc2)o1)N(O)C(N)=O` (stereo not drawn), the melting point was in the range of 154 to 156 °C.

The compound `CC(=O)NCC1CN(c2ccc(N3CCN(c4nc(=O)n(-c5ccccc5)s4)CC3)c(F)c2)C(=O)O1` (stereo not drawn) came in with a melting point of 245 to 247 °C.

As for `ON=Cc1ccc(-c2ccc(O)cc2)c2ccccc12`, the melting point was found to be 200 °C.

`O=C(c1ccccc1)c1cc2cc(Cl)ncc2[nH]1` registered a melting point of 194 to 197 °C.

For the compound `CCCOc1ccccc1OS(=O)(=O)NC(=O)Nc1nc(OC)cc(OC)n1`, the melting point lay in the range of 108 to 109 °C.

In the case of `CC1(C)CC(=O)c2c(SC(C)(C)C)sc(-c3cc[nH]n3)c2C1`, the melting point was 220 to 222 °C.

`CCC1(c2cccc(O)c2)CCCCN(C)C1` (stereo not drawn) registered a melting point of 128 to 133 °C.

Consider `CC(=O)N1CCC(c2nn(-c3ccccc3)c3cc(Br)ccc23)CC1`, for which the melting point was 136 to 138 °C.

As to `COc1c(C)cc2c(c1C)Cc1c-2[nH]c2ccc(C(C)C)cc12`, the melting point came out at 130 °C.

`OCCCN1CCN(c2ccccc2)CC1` displayed a melting point of 72 to 73 °C.

Compound `CCOC(CC)c1ccc(Cl)c2nc3n(c12)CCCN3c1cnc(N(C)C)cc1C` (stereo not drawn) had a melting point of 179 to 180 °C.

In turn, `Clc1nc(N2CCOCC2)c2ncnc(Cl)c2n1` displayed a melting point of 179 to 181 °C.

On to `CC(C)(C)c1noc(-c2cccc(S(C)(=O)=O)n2)n1`, for which the melting point fell in the range of 165 to 167 °C.

Turning to `Cn1nc(-c2ccccc2)c(S(=O)(=O)c2ccccc2)c1-c1ccccc1`, the melting point lay in the range of 135 to 141 °C.

In the case of `O=C1C2=C(CCCC2)C(=O)N1c1ccc(Cl)c2c1CC(CO)O2` (stereo not drawn), the melting point was in the range of 193 to 195 °C.

`CCCCCCCc1cnc(-c2ccc(C(=O)Oc3ccc(-c4ncc(CCCCC)cn4)cc3)cc2)nc1`: the melting point turned out to be 97 °C.
